Consider two compounds from US20050250853A1, “Beta-tubulin inhibitors” (priority 1999, published 2005).

Data set [1] deals with β-tubulin. The experiment in a line: Protein alkylation by [urea-14C]-4-tBCEU in MDA-MB-231 cells (autoradiography, immunoblot, kinetics). The format is cell-based, human. The protocol: FIG. 3. Protein alkylation induced by treatment with [urea-^14C]-4-tBCEU. (A) Post-nuclei protein extracts from MDA-MB-231 cells incubated with 30 or 100 μM of [urea-^14C]-4-tBCEU for 12 and 24 h. […] The protein extracts were analyzed by SDS-PAGE. […] Data are representative of four different experiments. The arrow points to β-tubulin.
FIG. 5. Kinetics of β-tubulin alkylation and microtubule disruption induced by [urea-^14C]-4-tBCEU. Exponentially growing MDA-MB231 cells were incubated with 30 μM [urea-^14C]-4-tBCEU for 0, 1, 4, 8, 12, 18, 24 and 48 h. (A) Free tubulin and microtubule fractions were isolated and analyzed by Western blotting; (B) [urea-^14C]-4-tBCEU-labeled proteins were visualized by autoradiography. Data are representative of three different experiments.
Cells (˜5×10^6) were incubated with 30 or 100 μM [^14C]-tBCEU for 12 or 24 h and then washed with PBS and harvested by scraping in lysis buffer (5 mM Hepes pH 7.4, 1 mM MgCl2, 10 mM KCl, 1 mM CaCl2, 1 mM PMSF, 1 mM benzamidine and 1 mM aprotinin). Cell lysates were homogenized using a tissue grinder and the final sucrose concentration of each sample was adjusted to 250 mM. Samples were centrifuged at 600×g for 10 min at 4° C. to isolate the post-nuclear supernatant. The pellets, containing nuclei and intact cells, were discarded and the post-nuclear supernatant was recentrifuged at 90,000 rpm using a Rotor TLA-100.1 in a Beckman TL-100 ultracentrifuge for 30 min to separate the cytosolic fraction (C) from the insoluble fraction (M) containing the membrane components and mitochondria. One volume of 2× Laemmli sample buffer was then added to the supernatant (C) and the pellet (M) was resuspended in 200 μl of Laemmli sample buffer. Samples were boiled for 5 min and kept at −20° C. until analysis.
Samples (1×10^5 cells) were analyzed by 10% SDS-PAGE using the Laemmli system (15). Membranes were then incubated with PBSMT (PBS, pH 7.4, 5% fat-free dry milk and 0.1% Tween-20) for 1 h at room temperature, and then with 1:500 monoclonal anti-β-tubulin (clone TUB 2.1, Sigma) or 1:400 anti (clone no. SDL.3D10, Sigma) for 1 h. […]

The next data set has as its target T1, βIII-tubulin (Homo sapiens, UniProt Q13509).
T1 construct: SK—N—SH cells, which express significant amounts of neuronal-specific βIII-tubulin; endogenous in cells; host or cells: SK-N-SH (ATCC HTB-11)
The experiment in a line: Alkylation of βIII-tubulin in SK-N-SH cells. The data set is classed as cell-based. The method, then:
FIG. 7. Localization of the site of alkylation by CEU on β-tubulin. Exponentially growing SK—N—SH cells were incubated in the absence or the presence of 30 μM and 100 μM [urea-^14C]-4-tBCEU for 24 h and 48 h, respectively. Total protein extracts were separated electrophoretically on 10% polyacrylamide gels. […] Results are representative of two independent experiments.
(§1) Human breast carcinoma cell line, MDA-MB-231, was obtained from the American Type Culture Collection (ATCC HTB-26; Bethesda, Md.). MDA-MB-231 cells were grown in RPMI 1640 medium supplemented with 10% bovine calf serum (Hyclone, Road Logan, Utah). Wild-type Chinese Hamster Ovary cells (CHO-10001) (7), colchicine- and vinblastine-resistant (CHO-VV 3-2) (8) and taxol-resistant (CHO-TAX 5-6) cells (9) were generously provided by Dr. Fernando Cabral (University of Texas Medical School, Houston, Tex.). These cells were cultured in RPMI 1640 containing 10% fetal bovine serum. SK—N—SH human neuroblastoma cells, (ATCC HTB-11; Bethesda, Md.) were cultured in MEM medium supplemented with 2 mM L-glutamine, 1.5 g/liter sodium bicarbonate, 0.1 mM non-essential amino acids, 1 mM sodium pyruvate and 10% fetal bovine serum. Cells were cultured in a humidified atmosphere at 37° C. in 5% CO2.
Samples (1×10^5 cells) were analyzed by 10% SDS-PAGE using the Laemmli system (15). […]

The test system of another data set is CHO TAX 5-6 cells. The experiment in a line: MTT cytotoxicity on taxol-resistant CHO cells expressing mutated tubulin. The note with it: Cricetulus griseus, CHO-TAX 5-6, 120 h, read-out: IC50 CHO TAX 5-6. The data set is classed as cell-based, Chinese hamster. The method, then:
as §1, with “Wild-type Chinese Hamster Ovary cells (CHO-10001) (7), colchicine- and vinblastine-resistant (CHO-VV 3-2) (8) and taxol-resistant (CHO-TAX 5-6) cells (9) were generously provided by Dr. Fernando Cabral (University of Texas Medical School, Houston, Tex.).” left out
(§2) Cytotoxicity was assessed using the MTT assay (3-(4,5-dimethylthiazol-2-yl)-2,5-diphenyltetrazolium bromide) as described by Carmichael et al. (12).
(§3) The cytotoxicity of 4-tBCEU, 4-iPCEU and 4-sBCEU in two CHO cell lines having differential sensitivity to antmicrotubule agents was evaluated. These cell lines are derived from parental CHO-10001 cells and express mutated tubulins.

Data set [2] deals with MDA-MB-231 cells. As to the kind of experiment: Cell cycle analysis by propidium iodide flow cytometry. The data set is classed as cell-based, human. As to conditions: CEU derivatives at 30 μM, 24 h; flow cytometry. The method, then: FIG. 1. Effect of CEU derivatives on cell cycle. Exponentially growing MDA-MB-231 cells were incubated in the absence or presence of 30 μM of either 4-tBCEU, 4-iPCEU or 4-sBCEU for 24 and 48 h, respectively, at 37° C. The cell cycle was evaluated using propidium iodide staining and flow cytometric analysis. Data are representative of three independent experiments.
Following incubation of MDA-MB-231 cells with 4-tBCEU, 4-iPCEU or 4-sBCEU, the cells were harvested, resuspended in 1 ml PBS and fixed by the addition of 2.4 ml of ice cold anhydrous ethanol. Then, 5×10^5 cells from each sample were centrifuged for 3 min at 1000×g. Cell pellets were resuspended in PBS containing 50 μg/ml of PI and 40 U/ml of ribonuclease A (Boehringer Mannheim, Laval, Calif.). Mixtures were incubated at room temperature for 30 min and cell cycle distribution was analyzed using an Epics Elite ESP flow cytometer (Coulter Corporation, Miami, Fla., USA).
The effect of CEU, namely 4-tBCEU, 4-PCEU and 4-sBCEU, on the cell cycle was analyzed. To this end, exponentially growing MDA-MB-231 cells were treated with 30 μM 4-tBCEU, 4-iPCEU or 4-sBCEU for 24 or 48 h followed by an evaluation of cell cycle distribution by flow cytometry using propidium iodide, a fluorescent DNA dye. […] Induction of mitosis blockage in prophase by CEU derivatives was confirmed by mitotic index analysis as described by Drouin (22).
(Flow cytometry measures light scatter and fluorescence of single cells or particles in a stream.)

Data set [3] has as its system β-tubulin. The experiment in a line: Separation of soluble and polymerized tubulins, Western blot of β-tubulin. The data set is classed as cell-based, human. As to conditions: MDA-MB-231 cells, 30 μM, 24 h and 48 h. The method, then: FIG. 2. Effects of CEU derivatives on microtubule depolymerization. Exponentially growing MDA-MB-231 cells were incubated in the absence or the presence of 30 μM of CEU derivatives including (A) 4-tBCEU, 4-iPCEU or 4-sBCEU for 24 and 48 h respectively; (B) 2-ECEU, 3-ECEU or 4-ECEU for 24 and 48 h; and (C) 4-tBEU, 4-iPEU, 4-sBEU, 4-tBCPU, CEU or 4-methoxyCEU for 48 h. Free tubulin and microtubule fractions were isolated and analyzed by Western blot. Data are representative of three different experiments.
Separation of soluble and polymerized tubulins from MDA-MB231 cells was carried out as described by Minotti et al. (14) with minor modifications. Briefly, after drug exposure, about 5×10^6 cells in 100-mm petri dishes were washed with PBS at 37° C. and harvested in 3 ml of PBS containing 0.4 μg/ml of taxol using a rubber policeman.
Cells were centrifuged and lysed using 250 μl of microtubule-stabilizing buffer (20 mM Tris-HCl, pH 6.8, 140 mM NaCl, 1 mM MgCl2, 2 mM EDTA, 0.5% Nonidet P-40 and 0.4 μg/ml taxol), and then transferred to 1.5 ml microcentrifuge tubes. Samples were centrifuged at 12,000×g for 10 min at 4° C. and the supernatants containing soluble tubulin were placed in separate microcentrifuge tubes containing 250 μl of 2× Laemmli sample buffer (15). Pellets containing the polymerized tubulin were resuspended in 250 μl of water, followed by two freeze/thawing cycles, and the addition of 250 μl of 2× Laemmli sample buffer. Samples were analyzed by SDS-PAGE and immunoassay was performed as described below.
Samples (1×10^5 cells) were analyzed by 10% SDS-PAGE using the Laemmli system (15). Membranes were then incubated with PBSMT (PBS, pH 7.4, 5% fat-free dry milk and 0.1% Tween-20) for 1 h at room temperature, and then with 1:500 monoclonal anti-β-tubulin (clone TUB 2.1, Sigma) or 1:400 anti (clone no. SDL.3D10, Sigma) for 1 h. […] Membranes were washed with PBSMT and incubated with 1:2500 peroxidase-conjugated anti-mouse immunoglobulin (Amersham Canada, Oakville, Canada) in PBSMT for 30 min. Detection of the immunoblot was carried out with the ECL Western blotting detection reagent kit (Amersham Canada, Oakville, Canada).

The next data set has as its system CHO VV 3-2 cells. As to the kind of experiment: MTT cytotoxicity on vinblastine- and colchicine-resistant CHO cells expressing mutated tubulin. The data set is classed as cell-based, Chinese hamster. As to conditions: Cricetulus griseus, CHO-VV 3-2, 120 h, read-out: IC50 CHO VV 3-2. The protocol: as §1, with “Wild-type Chinese Hamster Ovary cells (CHO-10001) (7), colchicine- and vinblastine-resistant (CHO-VV 3-2) (8) and taxol-resistant (CHO-TAX 5-6) cells (9) were generously provided by Dr. Fernando Cabral (University of Texas Medical School, Houston, Tex.).” left out
as §2, §3

The test system of data set [4] is CHO 10001 cells (wild-type). The experiment in a line: MTT cytotoxicity on wild-type CHO cells. As to conditions: Cricetulus griseus, CHO10001, 120 h, read-out: IC50 CHO 10001. The data set is classed as cell-based, Chinese hamster. The method, then:
as §1, with “Wild-type Chinese Hamster Ovary cells (CHO-10001) (7), colchicine- and vinblastine-resistant (CHO-VV 3-2) (8) and taxol-resistant (CHO-TAX 5-6) cells (9) were generously provided by Dr. Fernando Cabral (University of Texas Medical School, Houston, Tex.).” left out
as §2, §3

The test system of another data set is α-tubulin. The experiment in a line: Western blot for α-tubulin modification. As to conditions: data not shown. The format is cell-based, human.
Data set [5] concerns MDA-MB-231 cells. As to the kind of experiment: cells. The data set is classed as cell-based, human. As to conditions: for IC50: MTT assay, mean ± SD, read-out: IC50 (μM) MDA-MB-231. The method, then:
as §1, §2
(In general: Tetrazolium assays rely on reduction of a dye to a coloured formazan, in cell work by metabolically active cells.)

A short description of data set [6]: Kinetics of alkylation of 4-(4-nitrobenzyl)pyridine (colorimetric assay). The note with it: 80° C., pH 4.3, absorbance at 570 nm, linear regression, mean ± SD. The format is physicochemical. The method, then:
The rate constant of alkylation (K′) of CEU derivatives and chlorambucil was evaluated by a […] assay as described by Bardos et al (13). Briefly, 1 ml of a 10% (v/v) solution of 4-(4-nitrobenzyl)pyridine in ethanol and 1 ml of 50 mM sodium acetate (pH 4.3) were added to an ethanol solution (95%) containing 400 nmol per ml of either chlorambucil or CEU and heated to 80° C. in a shaking water bath for 60, 90, 120 or 150 min. The reaction was stopped by cooling the mixtures on ice for 5 min. Then, 1.5 ml of 0.1 M KOH: ethanol (1:2, v/v) were added to the reaction mixture. Samples were vortexed for 12 sec and set aside for 2.5 min prior to reading the absorbance at 570 nm. The values were compared with those obtained using a blank sample containing all reagents except the alkylating agent.

“Also recorded” adds a separate entry of the source. Read-outs that look alike come from different tables or passages of the source. Marks after values point to notes of the source that are not given here.

T1 sequence (Q13509 whole entry): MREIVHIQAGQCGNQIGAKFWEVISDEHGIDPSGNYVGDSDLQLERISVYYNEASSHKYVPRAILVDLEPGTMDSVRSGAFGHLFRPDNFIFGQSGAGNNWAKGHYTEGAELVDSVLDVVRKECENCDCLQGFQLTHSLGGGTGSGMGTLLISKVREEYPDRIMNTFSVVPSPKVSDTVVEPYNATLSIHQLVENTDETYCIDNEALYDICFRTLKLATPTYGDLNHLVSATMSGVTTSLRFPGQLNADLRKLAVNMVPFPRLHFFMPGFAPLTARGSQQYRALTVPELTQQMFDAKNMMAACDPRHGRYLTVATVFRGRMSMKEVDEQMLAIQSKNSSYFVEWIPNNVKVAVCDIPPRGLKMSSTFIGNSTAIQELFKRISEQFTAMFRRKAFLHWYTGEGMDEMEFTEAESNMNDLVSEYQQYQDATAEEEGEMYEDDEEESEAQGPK
T1 sequence (P68363 whole entry partner): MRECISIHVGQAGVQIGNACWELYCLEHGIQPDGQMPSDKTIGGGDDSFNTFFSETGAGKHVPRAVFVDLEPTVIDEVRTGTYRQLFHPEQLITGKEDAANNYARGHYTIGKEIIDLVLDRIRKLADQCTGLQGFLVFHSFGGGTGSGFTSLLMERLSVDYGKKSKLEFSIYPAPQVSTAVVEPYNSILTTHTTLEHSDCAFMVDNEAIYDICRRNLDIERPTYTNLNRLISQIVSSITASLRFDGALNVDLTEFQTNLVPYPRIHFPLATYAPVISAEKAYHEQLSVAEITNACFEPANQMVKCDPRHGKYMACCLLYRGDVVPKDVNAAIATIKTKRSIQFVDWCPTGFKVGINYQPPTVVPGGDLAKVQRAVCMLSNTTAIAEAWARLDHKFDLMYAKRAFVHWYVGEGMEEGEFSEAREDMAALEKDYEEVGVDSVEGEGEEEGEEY

Regarding `CC(C)(C)c1ccc(N[14C](=O)NCCCl)cc1` [[urea-^14C]-4-tBCEU], the “incubation time at which modified β-tubulin appears (immunoblot)” value with β-tubulin [1] (30 μM (FIG. 5A)) is recorded as 12 h. The “incubation time at which 14C-labeled modified β-tubulin appears (autoradiography)” value in the data set with β-tubulin [1] (30 μM (FIG. 5B)) was in the range of 1 to 4 h. Moreover, in the data set on β-tubulin [1] (30 μM, Western blot (FIG. 5A)), the “incubation time to complete microtubule disruption” value fell in the range of 8 to 12 h. Besides, the “alkylation of βIII-tubulin” value on βIII-tubulin (30 and 100 μM, 24 h and 48 h, autoradiography) is on record as “βIII-tubulin is not alkylated”. The “migration on SDS-PAGE of βIII-tubulin” value on βIII-tubulin (Western blot (FIG. 7A)) is “does not alter migration of the β-tubulin on SDS-PAGE”.
By IC50 is commonly meant the concentration that gives 50% inhibition. In the case of `CC(C)(C)c1ccc(NC(=O)NCCCl)cc1` [Example 4-tBCEU, 4-tert-butyl[3-(2-chloroethyl)ureido]benzene], the 50% inhibitory concentration (IC50) in the data set with CHO TAX 5-6 cells amounted to 4.6 ± 0.3 µM; in the data set on CHO VV 3-2 cells it was 21.3 ± 1.1 µM; in [4] it was 11.6 ± 0.7 µM; with MDA-MB-231 cells [5] (Homo sapiens, MDA-MB-231, concentration inhibiting 50% of cell growth), 4 µM; with MDA-MB-231 cells [5] (concentration inhibiting 50% of cell growth), 4.6 ± 0.3 µM. The “accumulation of cells in G2+M” value in the data set with MDA-MB-231 cells [2] is listed as “significant accumulation of cells in the G2+M”. Also, in the data set with β-tubulin [3], the microtubule depolymerization result is recorded as “complete microtubule depolymerization”. The “formation of modified β-tubulin (second immunoreactive band of lower Mr)” value in the data set with β-tubulin [3] (free tubulin fraction) was “second immunoreactive band; also recorded: induced in a dose-dependent manner”. For the same compound, in the data set with α-tubulin, the α-tubulin modification entry is on record as “no electrophoretic evidence for α-tubulin modification”. In addition, the “cytotoxicity in words (active / inactive CEU)” value in the data set on MDA-MB-231 cells [5] is recorded as “active”. Also, the “K′ (constant of alkylation of 4-(4-nitrobenzyl)pyridine)” value in data set [6] is on record as 3.1 ± 0.3^a.
